Source: ChEMBL document CHEMBL1126968, “Synthesis and biological evaluation of some 25,26-epoxy-1,24-dihydroxyvitamin D3 analogues” (1993)

Key:
HL-60 = test: Percent activity for its capability to induce differentiation of human promyeloid leukemia HL-60 cells; assay type: functional; parameters: concentration or dose not given beside the values
[1] = molecular target: T1, Vitamin D3 receptor (Sus scrofa) (UniProt A3RGC1); test: Inhibition of [3H]1-alpha,25-dihydroxy-vitamin D3 binding to porcine intestinal mucosal vitamin D receptor
T1 sequence (whole entry): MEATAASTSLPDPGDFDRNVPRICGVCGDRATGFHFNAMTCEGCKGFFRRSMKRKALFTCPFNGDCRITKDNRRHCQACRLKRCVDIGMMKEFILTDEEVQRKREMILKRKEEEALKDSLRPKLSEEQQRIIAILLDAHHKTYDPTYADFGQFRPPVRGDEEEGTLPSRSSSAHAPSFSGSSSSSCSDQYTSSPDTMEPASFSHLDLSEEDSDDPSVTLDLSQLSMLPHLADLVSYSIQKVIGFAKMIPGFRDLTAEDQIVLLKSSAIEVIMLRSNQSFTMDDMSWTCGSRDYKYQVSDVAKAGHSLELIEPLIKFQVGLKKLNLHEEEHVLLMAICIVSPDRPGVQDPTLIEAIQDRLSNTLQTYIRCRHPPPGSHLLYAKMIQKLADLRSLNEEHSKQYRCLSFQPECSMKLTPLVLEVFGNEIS

With C=C1/C(=C\C=C2/CCC[C@]3(C)[C@@H]([C@H](C)CCCC4(C)CO4)CC[C@@H]23)C[C@@H](O)C[C@@H]1O (some centres undefined) the Activity (HL-60) was 37% and the Receptor binding [1] was 27.

With C=C1/C(=C\C=C2/CCC[C@]3(C)[C@@H]([C@H](C)/C=C/[C@@H](O)[C@@]4(C)CO4)CC[C@@H]23)C[C@@H](O)C[C@@H]1O the Activity (HL-60) was 30% and the Receptor binding [1] was 8.

For C=C1/C(=C\C=C2/CCC[C@]3(C)[C@@H]([C@H](C)CC[C@@H](O)[C@@]4(C)CO4)CC[C@@H]23)C[C@@H](O)C[C@@H]1O, the Activity (HL-60) was 12% and the Receptor binding [1] was 20.

C=C1/C(=C\C=C2/CCC[C@]3(C)[C@@H]([C@H](C)CC[C@@H](O)[C@]4(C)CO4)CC[C@@H]23)C[C@@H](O)C[C@@H]1O gave an Activity (HL-60) of 33% and a Receptor binding [1] of 9.

Molecule C=C1/C(=C\C=C2/CCC[C@]3(C)[C@@H]([C@H](C)/C=C/[C@H](O)[C@]4(C)CO4)CC[C@@H]23)C[C@@H](O)C[C@@H]1O has an Activity (HL-60) of 30% and a Receptor binding [1] of 8.

C=C1/C(=C\C=C2/CCC[C@]3(C)[C@@H]([C@H](C)CC[C@H](O)[C@]4(C)CO4)CC[C@@H]23)C[C@@H](O)C[C@@H]1O gave an Activity (HL-60) of 7% and a Receptor binding [1] of 5.

C=C1/C(=C\C=C2/CCC[C@]3(C)[C@@H]([C@H](C)CC[C@H](O)[C@@]4(C)CO4)CC[C@@H]23)C[C@@H](O)C[C@@H]1O was tested, and the Activity (HL-60) was 44% and the Receptor binding [1] was 1.
